Results from patent US8642630B2, “Endogeneous repair factor production accelerators” (Ono Pharmaceutical Co., Ltd., priority 2002, dated 2014).

How the values were obtained:
[1] = system: VEGF; assay: Endogenous repair factor protein producing action (in vitro), VEGF by ELISA, Example 2; type: cell-based, human; conditions: 10^-7 mol/l
Procedure: An angiogenesis kit (manufactured by Kurabo; constituted from normal human umbilical cord vein vascular endothelial cells and normal human skin fibroblasts) was cultured for 3 hours, and then the culture medium (the medium for angiogenesis use attached to the angiogenesis kit was used as the culture medium and cultured at 37° C. under a moist environment of 5% carbon dioxide-95% air, and a carbon dioxide incubator BNA-121D was used as the incubator) was changed and an agent to be tested was added to each well (0.5 ml/well). The agent to be tested were solvent (DMSO) 0.1% and Compound 1 10^−7 mol/l, and the culturing was carried out by using 3 wells for each. Culture supernatants were collected before commencement of the culturing and 1, 2, 6, 24, 48 and 72 hours after the commencement. HGF and VEGF protein concentrations in the culture supernatants were measured by using an ELISA kit (R % D system-Funakoshi).
As the agent to be tested, Compound 1 ((E)-[5-[2-[1-phenyl-1-(3-pyridyl)methylideneaminoxy]ethyl]-7,8-dihydronaphthalen-1-yloxy]acetic acid) was dissolved in dimethyl sulfoxide (DMSO) to prepare 10^−4 mol/l solution which was then used by diluting 1/1000 time with the culture medium.
Results of the solvent control wells were compared with those of the wells treated with the agent to be tested by Dunnett's test (two-sided test). The significance level was set to 5%. […]

[2] = system: rat leg ischemia (arteriosclerosis obliterans (ASO)) model; assay: Angiogenesis test using rat leg ischemia (ASO) model, Example 4; type: in vivo
Procedure: (§1) Leg ischemia model was prepared by ligating rat left femoral artery. Blood flow in hind legs was measured by using Laser Doppler Imager (Moor Instruments) 2 weeks after the preparation, and the animals were divided into 6 groups (n=5) in such a manner that the average value of blood flow became almost uniform.
(§2) Starting on the next day of the grouping, 0.1 ml/site, 2 sites, of the agent to be tested was administered by intramuscular injection into the left femoral adductor, for once a week, 4 times in total as a solution to be tested. One week after completion of the final administration, blood flows of hind legs were measured by using Laser Doppler Imager (Moor Instruments), and blood flows of the treated leg (left leg) and untreated leg (right leg) were compared and examined.
In this connection, construction of the solution to be tested is as follows. Solvent (control) group: 0.2 w/v % Tween 80 solution (0.2 ml).
(§3) • The polylactic acid-glycolic acid copolymer used in Preparation Example 2 was suspended in 0.2 w/v % Tween 80 solution (0.2 ml). In this connection, amount of the polylactic acid-glycolic acid copolymer is identical to the amount contained in the Compound 1 MS (1 mg). Compound 1 (1 mg) Group: • Compound 1 (1 mg) was suspended in 0.2 w/v % Tween 80 solution (0.2 ml). […]

[3] = system: rat leg ischemia (arteriosclerosis obliterans (ASO)) model; assay: Rat leg ischemia (ASO) model; usefulness of topical administration, Example 6; type: in vivo; conditions: 0.1 mg, intramuscular administration into the ischemic left femoral part
Procedure: as §1, with “1 week” for “2 weeks”, “4” for “6”
as §2, with “into ischemic regions of” for “into”, “adductor (polymer group, Compound 1 group, Compound 1 MS group) and normal region of the right shoulder upper arm (Compound 1 MS group),” for “adductor,”
as §3, with “in” for “in the”, “1 (0.1” for “1 (1”

SMILES: O=C(O)COc1cccc2c1CCC=C2CCO/N=C(\c1ccccc1)c1cccnc1 [Compound 1, (E)-[5-[2-[1-phenyl-1-(3-pyridyl)methylideneaminoxy]ethyl]-7,8-dihydronaphthalen-1-yloxy]acetic acid]
- production of VEGF protein, in words ([1]; 72 hours of culturing, vs solvent control): accelerated production of HGF protein and VEGF protein statistically significantly
- VEGF protein concentration in culture supernatant ([1]; after 72 hours of culturing, average of 3 wells ± SD): 3034 ± 30 pg/mL
- Treated leg/untreated leg blood flow ratio ([2]; 1 mg as Compound 1, i.m. left femoral adductor once a week x4, 1 week after final administration): 76.2 ± 2.8 %
- blood flow improving effect, in words ([2]; 1 mg, i.m. once a week x4, vs Control / polymer group): significant recovery of blood flow against Control
- increase in the blood flow, in words [3]: significant blood flow increasing action was not observed
- Treated leg/untreated leg blood flow ratio ([3]; once a week x4, 1 week after final administration): 60.5 ± 3.1%
